The target in this experiment is T1, histamine H4 receptor (Homo sapiens, UniProt Q9H3N8).
T1 construct: expressed in transfected cells; host or cells: CHO cells
Description: H4 binding, method 2 ([3H]-histamine binding with Ysi WGA beads on CHO cell membranes). The note with it: H4 binding, method 2; Ki calculated from IC50 (Cheng-Prussoff); read-out: Method 2 (Ki (nM)). How it is done: Cell pellets from CHO cells expressing the histamine H4 receptor were homogenised in ice-cold 50 mM Tris-HCl/0.5 mM CaCl2 buffer containing a protease inhibitor cocktail (Roche®, United Kingdom) using a ground glass homogeniser. Homogenates were centrifuged at 48000 g for 30 min at 4° C. The membrane pellet was resuspended in fresh buffer and the centrifugation step was repeated as described above. The membrane pellet was resuspended in 50 mM Tris-HCl in the same volume as the original cell pellet. Aliquots of membrane preparations were stored at −80° C. and were used for [^3H]-Histamine binding experiments.
Cell membranes (15 μg/well) were pre-incubated for 120 min shaking at 4° C. with Ysi WGA beads (250 μg/well) in 50 mM Tris-HCl (pH 7.4) followed by centrifugation at 1500 rpm for 5 minutes and resuspension in 50 mM Tris-HCl (pH 7.4). The membrane/bead mixture (15 μg membrane/250 μg beads well) was incubated for 90 minutes shaking at room temperature with 6.5 nM [2,5-^3H] Histamine dihydrochloride (30-60 Ci/mmol) in 50 mM Tris-HCl (pH 7.4), with or without competing H4 ligands. Non-specific binding was defined with 10 μM JNJ7777120. Bound radiolabel was determined using scintillation counting techniques after 90 minutes.

The values below come from patent US7943628B2, “Pyrimidine derivatives” (Pfizer Limited, priority 2005, dated 2011).

T1 sequence (Q9H3N8 whole entry): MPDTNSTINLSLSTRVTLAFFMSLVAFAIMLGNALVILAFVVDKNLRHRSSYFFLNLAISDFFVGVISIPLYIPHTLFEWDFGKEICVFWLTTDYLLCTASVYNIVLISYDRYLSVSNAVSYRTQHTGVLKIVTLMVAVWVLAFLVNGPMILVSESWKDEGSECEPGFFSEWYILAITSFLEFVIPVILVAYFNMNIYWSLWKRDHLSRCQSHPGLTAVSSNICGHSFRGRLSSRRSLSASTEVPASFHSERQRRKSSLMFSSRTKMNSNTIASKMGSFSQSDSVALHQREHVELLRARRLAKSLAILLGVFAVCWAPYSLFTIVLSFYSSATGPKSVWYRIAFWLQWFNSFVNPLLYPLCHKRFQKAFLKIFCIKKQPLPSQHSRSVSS

By Ki is commonly meant the dissociation constant of the complex between target and ligand, obtained from inhibition or displacement. Take `CNC1CN(c2cc(NCc3ccc(F)cc3)ncn2)C1` [Example 47, N-(4-Fluorobenzyl)-6-[3-(methylamino)azetidin-1-yl]pyrimidin-4-amine]: the Ki is 256 nM. Take `CCNc1cc(N2CC(NC)C2)ncn1` [Example 48, N-Ethyl-6-[3-(methylamino)azetidin-1-yl]pyrimidin-4-amine]: the Ki was 49.7 nM. In the case of `CNC1CN(c2cc(NCCO)ncn2)C1` [Example 50, 2-({6-[3-(Methylamino)azetidin-1-yl]pyrimidin-4-yl}amino)ethanol], the inhibitory constant (Ki) was 279 nM.

`CNC1CN(c2cc(NCc3ccccc3)ncn2)C1` [Example 51, N-Benzyl-6-[3-(methylamino)azetidin-1-yl]pyrimidin-4-amine]: the Ki was 161 nM.

In the case of `CNC1CN(c2cc(NCc3ccccc3Cl)ncn2)C1` [Example 52, N-(2-Chlorobenzyl)-6-[3-(methylamino)azetidin-1-yl]pyrimidin-4-amine], the Ki is 99.7 nM. Regarding `CNC1CN(c2cc(N3CCC(C)CC3)ncn2)C1` [Example 53, N-Methyl-1-[6-(4-methylpiperidin-1-yl)pyrimidin-4-yl]azetidin-3-amine], the inhibition constant (Ki) was 1940 nM. Consider `CNC1CN(c2cc(NCCOC)ncn2)C1` [Example 54, N-(2-Methoxyethyl)-6-[3-(methylamino)azetidin-1-yl]pyrimidin-4-amine], for which the inhibition constant Ki is 414 nM. Take `CNC1CN(c2cc(NCCC(C)C)ncn2)C1` [Example 55, 6-[3-(Methylamino)azetidin-1-yl]-N-(3-methylbutyl)pyrimidin-4-amine]: the Ki is 28.9 nM. In the case of `CNC1CN(c2cc(N3CCCCC3)ncn2)C1` [Example 56, N-Methyl-1-(6-piperidin-1-ylpyrimidin-4-yl)azetidin-3-amine], the Ki was 1590 nM. Next, `CNC1CN(c2cc(NCC(C)(C)C)ncn2)C1` [Example 57, N-(2,2-Dimethylpropyl)-6-[3-(methylamino)azetidin-1-yl]pyrimidin-4-amine]: 20.3 nM; `CNC1CN(c2cc(NCc3cccc(OC)c3)nc(N)n2)C1` [Example 66, N^4-(3-Methoxy-benzyl)-6-(3-methylamino-azetidin-1-yl)-pyrimidine-2,4-diamine]: 61.1 nM; `CNc1cc(N2CC(NC)C2)nc(N)n1` [Example 69, N^4-Methyl-6-[3-(methylamino)azetidin-1-yl]pyrimidine-2,4-diamine]: 9.38 nM. Turning to `CNC1CN(c2cc(NC3CC3)nc(N)n2)C1` [Example 72, N^4-Cyclopropyl-6-[3-(methylamino)azetidin-1-yl]pyrimidine-2,4-diamine], the inhibitory constant (Ki) is 11.9 nM. In the case of `CNC1CN(c2cc(NCc3ccc(OC(F)(F)F)cc3)nc(N)n2)C1` [Example 76, 6-[3-(Methylamino)azetidin-1-yl]-N^4-[4-(trifluoromethoxy)benzyl]pyrimidine-2,4-diamine] it was 125 nM; in that of `CNC1CN(c2cc(NCc3ccc(C#N)cc3)nc(N)n2)C1` [Example 77, 4-[({2-Amino-6-[3-(methyl-amino)azetidin-1-yl]pyrimidin-4-yl}amino)methyl]benzonitrile], 255 nM. For `CNC1CN(c2cc(NCc3ccccc3F)nc(N)n2)C1` [Example 78, N^4-(2-Fluorobenzyl)-6-[3-(methylamino)azetidin-1-yl]pyrimidine-2,4-diamine], the Ki was 3.66 nM. For the compound `CNC1CN(c2cc(NCc3ccccc3)nc(N)n2)C1` [Example 79, N^4-Benzyl-6-[3-(methylamino)azetidin-1-yl]pyrimidine-2,4-diamine], the Ki is 11.2 nM. For the compound `CNC1CN(c2cc(NCc3cccc(C(F)(F)F)c3)nc(N)n2)C1` [Example 80, 6-[3-(Methylamino)azetidin-1-yl]-N^4-[3-(trifluoromethyl)benzyl]pyrimidine-2,4-diamine], the inhibition constant Ki was 103 nM. In the case of `CNC1CN(c2cc(NCc3ccc(Cl)cc3)nc(N)n2)C1` [Example 81, N^4-(4-Chlorobenzyl)-6-[3-(methylamino)azetidin-1-yl]pyrimidine-2,4-diamine] it was 12.1 nM; in that of `CNC1CN(c2cc(NCc3ccccc3C)nc(N)n2)C1` [Example 82, 6-[3-(Methylamino)azetidin-1-yl]-N^4-(2-methylbenzyl)pyrimidine-2,4-diamine], 9.68 nM; in that of `CNC1CN(c2cc(NCc3cccc(C)c3)nc(N)n2)C1` [Example 83, 6-[3-(Methylamino)azetidin-1-yl]-N^4-(3-methylbenzyl)pyrimidine-2,4-diamine], 62.3 nM. In the case of `CNC1CN(c2cc(NCc3ccccc3C(F)(F)F)nc(N)n2)C1` [Example 84, 6-[3-(Methylamino)azetidin-1-yl]-N^4-[2-(trifluoromethyl)benzyl]pyrimidine-2,4-diamine], the Ki is 21.7 nM.

For the compound `CNC1CN(c2cc(NCc3ccc(C(F)(F)F)cc3)nc(N)n2)C1` [Example 85, 6-[3-(Methylamino)azetidin-1-yl]-N^4-[4-(trifluoromethyl)benzyl]pyrimidine-2,4-diamine], the inhibitory constant (Ki) was 156 nM. With `CNC1CN(c2cc(NCc3cccc(Cl)c3)nc(N)n2)C1` [Example 86, N^4-(3-Chlorobenzyl)-6-[3-(methylamino)azetidin-1-yl]pyrimidine-2,4-diamine], the Ki is 142 nM. `CNC1CN(c2cc(NCc3ccccc3OC)nc(N)n2)C1` [Example 87, N^4-(2-Methoxybenzyl)-6-[3-(methylamino)azetidin-1-yl]pyrimidine-2,4-diamine]: the Ki is 17.4 nM. Consider `CNC1CN(c2cc(NCc3ccc(C)cc3)nc(N)n2)C1` [Example 88, 6-[3-(Methylamino)azetidin-1-yl]-N^4-(4-methylbenzyl)pyrimidine-2,4-diamine], for which the Ki is 35.8 nM. Take `CNC1CN(c2cc(NCc3ccccc3Cl)nc(N)n2)C1` [Example 89, N^4-(2-Chlorobenzyl)-6-[3-(methylamino)azetidin-1-yl]pyrimidine-2,4-diamine]: the Ki is 1.93 nM. Next, `CNC1CN(c2cc(NCc3ccc(F)cc3)nc(N)n2)C1` [Example 90, N^4-(4-Fluorobenzyl)-6-[3-(methylamino)azetidin-1-yl]pyrimidine-2,4-diamine]: 6.42 nM. Consider `CN1CCN(c2cc(NCc3cccc(F)c3)nc(N)n2)CC1` [Example 91, N^4-(3-Fluorobenzyl)-6-(4-methylpiperazin-1-yl)pyrimidine-2,4-diamine], for which the Ki is 386 nM. As for `CN1C[C@@H]2CN(c3cc(NCc4cccc(F)c4)nc(N)n3)C[C@@H]2C1` [Example 92, N^4-(3-Fluorobenzyl)-6-[(3aR*,6aS*)-5-methylhexahydropyrrolo [3,4-c]pyrrol-2(1H)-yl]pyrimidine-2,4-diamine], the Ki was 1350 nM. Take `C[C@@H]1CN(c2cc(NCCC(C)(C)C)nc(N)n2)CCN1` [Example 93, N^4-(3,3-Dimethylbutyl)-6-[(3R)-3-methylpiperazin-1-yl]pyrimidine-2,4-diamine]: the inhibition constant (Ki) is 256 nM. In the case of `C[C@H]1CN(c2cc(NCCC(C)(C)C)nc(N)n2)CCN1` [Example 94, N^4-(3,3-Dimethylbutyl)-6-[(3S)-3-methylpiperazin-1-yl]pyrimidine-2,4-diamine], the inhibition constant Ki was 61.1 nM. In the case of `C[C@@H]1CN(c2cc(NCC(C)(C)C)nc(N)n2)CCN1` [Example 95, N^4-(2,2-Dimethylpropyl)-6-[(3R)-3-methylpiperazin-1-yl]pyrimidine-2,4-diamine], the Ki is 9.11 nM.
